Experimental data reported in US10208015B2, “Aryl-triazolyl pyridines as pest control agents” (BAYER ANIMAL HEALTH GMBH, priority 2014, dated 2019).

What was measured:
[1] = logP by HPLC on reversed-phase column (C18), EEC Directive 79/831 Annex V.A8; type: physicochemical; settings: HPLC, C18, acetonitrile (0.1% formic acid)/water (0.09% formic acid) gradient
[2] = test system: Rhipicephalus sanguineus; assay: Rhipicephalus sanguineus in vitro contact test with adult brown dog ticks; type: in vivo; settings: after 48 h
Protocol: Rhipicephalus sanguineus—In Vitro Contact Tests with Adult Brown Dog Ticks
(§1) For the coating of the test tubes, 9 mg of active compound are first dissolved in 1 ml of acetone p.a. and then diluted to the desired concentration with acetone p.a. 250 μl of the solution are distributed homogeneously on the inner walls and the base of a 25 ml test tube by turning and rocking on an orbital shaker (rocking rotation at 30 rpm for 2 h). With 900 ppm active compound solution and internal surface 44.7 cm^2, given homogeneous distribution, an area-based dose of 5 μg/cm^2 is achieved.
After the solvent has evaporated off, the tubes are populated with 5-10 adult dog ticks (Rhipicephalus sanguineus), sealed with a perforated plastic lid and incubated in a horizontal position in the dark at room temperature and ambient humidity. After 48 h, efficacy is determined. To this end, the ticks are knocked to the floor of the tube and incubated on a hotplate at 45-50° C. for not more than 5 min. Ticks which remain motionless on the floor or move in such an uncoordinated manner that they are unable to deliberately avoid the heat by climbing upwards are considered to be dead or moribund.
An efficacy of 100% means that all the ticks were dead or moribund. 0% efficacy means that none of the ticks had been harmed.

[3] = test system: Amblyomma hebraeum; assay: Amblyomma hebraeum test (tick nymphs, immersion); type: in vivo; settings: application rate 100 ppm, after 42 days
From the text: Amblyomma hebaraeum Test • Solvent: dimethyl sulphoxide […] Tick nymphs (Amblyomma hebraeum) are placed into perforated plastic beakers and immersed in the desired concentration for one minute. The ticks are transferred on filter paper into a Petri dish and stored in a climate-controlled cabinet.

[4] = test system: Boophilus microplus Parkhurst strain, SP-resistant; assay: Boophilus microplus dip test; type: in vivo; settings: application rate 100 ppm, assessed after 7 days
Protocol: Boophilus microplus—Dip Test
• Test animals: cattle ticks (Boophilus microplus) Parkhurst strain, SP-resistant • Solvent: dimethyl sulphoxide
10 mg of active compound are dissolved in 0.5 ml of dimethyl sulphoxide. To produce a suitable formulation, the active compound solution is diluted with water to the concentration desired in each case.
This active compound preparation is pipetted into tubes. 8-10 engorged adult female cattle ticks (Boophilus microplus) are transferred into a further tube with holes. The tube is immersed into the active compound preparation, and all the ticks are completely wetted. After the liquid has run out, the ticks are transferred on filter discs into plastic dishes and stored in a climate-controlled room.
Efficacy is assessed after 7 days by laying of fertile eggs. Eggs which are not visibly fertile are stored in a climate-controlled cabinet until the larvae hatch after about 42 days. An efficacy of 100% means that none of the ticks has laid any fertile eggs; 0% means that all the eggs are fertile.

[5] = test system: Boophilus microplus; assay: Boophilus microplus injection test; type: in vivo; settings: application rate 20 μg/animal, assessed after 7 days
Protocol: Boophilus microplus—Injection Test • Solvent: dimethyl sulphoxide […] The animals are transferred into dishes and kept in a climate-controlled room. Efficacy is assessed after 7 days by laying of fertile eggs. Eggs which are not visibly fertile are stored in a climate-controlled cabinet until the larvae hatch after about 42 days.

[6] = test system: Ctenocephalides felis; assay: Ctenocephalides felis oral test; type: in vivo; settings: application rate 100 ppm in citrated cattle blood, after 2 days
From the text: Ctenocephalides felis—Oral Test • Solvent: dimethyl sulphoxide […] Dilution with citrated cattle blood gives the desired concentration. About 20 unfed adult cat fleas (Ctenocephalides felis) are placed into a chamber which is closed at the top and bottom with gauze. A metal cylinder whose bottom end is closed with parafilm is placed onto the chamber. The cylinder contains the blood/active compound preparation, which can be imbibed by the fleas through the parafilm membrane.

[7] = test system: Lucilia cuprina; assay: Lucilia cuprina test; type: in vivo; settings: application rate 100 ppm, L1 larvae, after 2 days
Protocol: (§2) • Solvent: dimethyl sulphoxide
(§3) To produce a suitable preparation of active compound, 10 mg of active compound are mixed with 0.5 ml of dimethyl sulphoxide, and the concentrate is diluted with water to the desired concentration.
About 20 L1 larvae of the Australian sheep blowfly (Lucilia cuprina) are transferred into a test vessel containing minced horsemeat and the active compound preparation of the desired concentration.
After 2 days, the kill in % is determined. 100% means that all the larvae have been killed; 0% means that no larvae have been killed.

[8] = test system: Musca domestica; assay: Musca domestica test; type: in vivo; settings: application rate 100 ppm, adult houseflies, after 2 days
Protocol: as §2, §3
Vessels containing a sponge treated with sugar solution and the active compound preparation of the desired concentration are populated with 10 adult houseflies (Musca domestica).
After 2 days, the kill in % is determined. 100% means that all of the flies have been killed; 0% means that none of the flies have been killed.

[9] = test system: Phaedon cochleariae; assay: Phaedon cochleariae spray test; type: in vivo; settings: application rate 100 g/ha, after 7 days
Protocol: Phaedon Cochleariae—Spray Test
(§4) • Solvent: 78.0 parts by weight of acetone • 1.5 parts by weight of dimethylformamide • Emulsifier: alkylaryl polyglycol ether
(§5) To produce a suitable preparation of active compound, 1 part by weight of active compound is dissolved using the stated parts by weight of solvent and made up with water containing an emulsifier concentration of 1000 ppm until the desired concentration is attained. To produce further test concentrations, the preparation is diluted with emulsifier-containing water.
After 7 days, the efficacy in % is determined. 100% means that all the beetle larvae have been killed; 0% means that no beetle larvae have been killed.

[10] = test system: Spodoptera frugiperda; assay: Spodoptera frugiperda spray test; type: in vivo; settings: application rate 100 g/ha, after 7 days
Protocol: Spodoptera Frugiperda—Spray Test
as §4, §5
Leaf discs of maize (Zea mays) are sprayed with an active compound preparation of the desired concentration and, after drying, populated with caterpillars of the armyworm (Spodopterafrugiperda).
After 7 days, the efficacy in % is determined. 100% means that all the caterpillars have been killed; 0% means that no caterpillars have been killed.

[11] = test system: Tetranychus urticae; assay: Tetranychus urticae spray test, OP-resistant; type: in vivo; settings: after 6 days
Protocol: Tetranychus Urticae—Spray Test, OP-Resistant
as §4
To produce further test concentrations, the preparation is diluted with emulsifier-containing water.
After 6 days, the efficacy in % is determined. 100% means that all the spider mites have been killed; 0% means that none of the spider mites have been killed.

[12] = test system: Ctenocephalides felis; assay: Ctenocephalides felis in vitro contact test with adult cat fleas; type: in vivo; settings: application rate 500 g/ha (5 μg/cm^2), after 48 h
Protocol: Ctenocephalides felis—In Vitro Contact Tests with Adult Cat Fleas
as §1
After the solvent has evaporated off, the tubes are populated with 5-10 adult cat fleas (Ctenocephalides felis), sealed with a perforated plastic lid and incubated in a horizontal position at room temperature and ambient humidity. After 48 h, efficacy is determined. To this end, the test tubes are stood upright and the fleas are knocked to the base of the tube. Fleas which remain motionless at the base or move in an uncoordinated manner are considered to be dead or moribund.
100% efficacy means that all the fleas were dead or moribund. 0% efficacy means that no fleas were harmed.

[13] = test system: Myzus persicae; assay: Myzus persicae spray test; type: in vivo; settings: application rate 100 g/ha, after 6 days
Protocol: Myzus Persicae—Spray Test […] To produce further test concentrations, the preparation is diluted with emulsifier-containing water. Discs of Chinese cabbage leaves (Brassica pekinensis) infested by all stages of the green peach aphid (Myzus persicae) are sprayed with an active compound preparation of the desired concentration.

[14] = application rate 500 g/ha (5 μg/cm^2)

Structure (SMILES)	logP [1]	efficacy (ticks dead or moribund) [2, 14]	efficacy (kill in %) [3]	efficacy (laying of fertile eggs) [4]	efficacy (laying of fertile eggs) [5]	efficacy (kill in %) [6]	efficacy (kill in %) [7]	efficacy (kill in %) [8]	efficacy in % [9]	efficacy in % [10]	efficacy in % ([11]; application rate 20 g/ha)	efficacy (fleas dead or moribund) [12]	efficacy in % ([11]; application rate 100 g/ha)	efficacy (ticks dead or moribund) ([2]; application rate 20 g/ha (0.2 μg/cm^2))	efficacy in % [13]
O=C(NC1CC1)c1cc(-c2cn(-c3c(Cl)cc(C(F)(C(F)(F)F)C(F)(F)F)cc3Cl)nn2)cnc1Cl [Example 3]	3.9	100%	100%	100%	100%	100%	100%	100%	100%	100%	90%	–	–	–	–
Cc1ncc(-c2cn(-c3c(Cl)cc(C(F)(C(F)(F)F)C(F)(F)F)cc3Cl)nn2)cc1C(=O)NC1(C#N)CC1 [Example 6]	3.5	–	–	100%	100%	100%	100%	100%	100%	100%	–	100%	100%	–	–
Cc1cc(C(F)(C(F)(F)F)C(F)(F)F)cc(C)c1-n1cc(-c2cnc(Cl)c(C(=O)NC3(C#N)CC3)c2)nn1 [Example 8]	3.8	100%	100%	100%	100%	100%	90%	95%	100%	–	–	100%	100%	–	–
N#CC1(NC(=O)c2cc(-c3cn(-c4c(Cl)cc(C(F)(C(F)(F)F)C(F)(F)F)cc4Cl)nn3)cnc2Cl)CC1 [Example 9]	3.8	–	100%	100%	100%	100%	100%	100%	100%	–	–	100%	100%	100%	–
Cc1cc(C(F)(C(F)(F)F)C(F)(F)F)cc(C)c1-n1cc(-c2cnc(C)c(C(=O)NC3(C#N)CC3)c2)nn1 [Example 12]	3.4	80%	–	80%	100%	100%	100%	100%	100%	100%	–	100%	100%	–	90%
Cc1cc(C(F)(C(F)(F)F)C(F)(F)F)cc(C(F)(F)F)c1-n1cc(-c2cnc(Cl)c(C(=O)NC3CC3)c2)nn1 [Example 13]	3.9	100%	–	100%	100%	100%	100%	100%	100%	100%	–	100%	100%	–	90%
Cc1cc(C(F)(C(F)(F)F)C(F)(F)F)cc(C(F)(F)F)c1-n1cc(-c2cnc(Cl)c(C(=O)NC3(C#N)CC3)c2)nn1 [Example 14]	3.9	100%	–	100%	100%	100%	90%	100%	100%	100%	–	80%	100%	–	–
Cc1cc(C(F)(C(F)(F)F)C(F)(F)F)cc(C(F)(F)F)c1-n1cc(-c2cnc(Cl)c(C(=O)N(C)C3CC3)c2)nn1 [Example 15]	4.3	–	–	100%	100%	100%	100%	100%	100%	100%	–	100%	100%	–	90%
N#CC1(NC(=O)c2cc(-c3cn(-c4c(Cl)cc(C(F)(C(F)(F)F)C(F)(F)F)cc4C(F)(F)F)nn3)cnc2Cl)CC1 [Example 17]	3.9	–	–	100%	100%	100%	100%	100%	100%	–	–	100%	100%	–	–
CN(C(=O)c1cc(-c2cn(-c3c(Cl)cc(C(F)(C(F)(F)F)C(F)(F)F)cc3OC(F)(F)F)nn2)cnc1Cl)C1CC1 [Example 35]	4.6	–	–	–	100%	100%	100%	100%	100%	100%	–	–	100%	–	90%
